Tested on: VSV pseudotype virus carrying the SARS-CoV-2 Spike protein
Assay type: cell-based

## O=C(NOCC1CC1)c1ccc(F)c(F)c1Nc1ccc(I)cc1Cl [CI-1040, reference compound]
  internalization of the VSV pseudotype virus (GFP positive cells): reduction in the internalization

Source: patent publication US20230241014A1, “MEK-INHIBITORS FOR THE TREATMENT OR PREVENTION OF CORONAVIRUS INFECTIONS AND/OR COVID-19 CYTOKINE STORM” (priority 2020, published 2023)
